Values of other authors, collected in patent US20090142410A1, “Nutritional composition and method for increasing creatine uptake and retention in skeletal muscle, increasing muscle mass and strength, increasing exercise capacity and for aiding recovery following exercise” (priority 2006, published 2009).

Conditions: concomitant ingestion with carbohydrates

## CN(CC(=O)O)C(=N)N [Creatine, N-methyl-N-guanyl Glycine]
  improvement of Creatine retention: up to 60%
